Assay results from patent US5942519A, “Prevention of precipitated acute urinary retention” (Merck & Co., Inc., priority 1998, dated 1999).

How the values were obtained:
[1] = test system: precipitated acute urinary retention; test: Four-year double-blind, placebo-controlled study in men with BPH: precipitated acute urinary retention; format: in vivo, human
Experimental: A total of 3040 men with moderate to severe symptoms of BPH and enlarged prostates were treated with either finasteride (17β-(N-tert-butylcarbamoyl)-3-oxo-4-aza-5α-androst-1-en-3-one,5 mg daily) or placebo in a four year double-blind, placebo-controlled study. BPH-related outcomes were assessed every 4 months. Patients on alpha blockers, antiandrogens, with a history of chronic prostatitis, recurrent urinary tract infections, or prior prostate or bladder surgery were excluded. A total of 3016 patients randomized to treatment had efficacy data and were included in the analysis of precipitated acute urinary retention; 1513 in the finasteride group and 1503 in the placebo group.
The endpoint committee, blinded to treatment group, reviewed all study-related documents related to episodes of acute urinary retention to classify the episodes as spontaneous or precipitated by other factors. All acute urinary retentions were classified by the endpoint committee as being "clearly" BPH related ("spontaneous") if there was no clear precipitating event, such as surgery within 72 hours, a precipitating medical event (e.g. stroke), or ingestion of a medication thought to precipitate retention (e.g., pseudoephedrine hydrochloride), etc. The other episodes of acute urinary retention were classified as not "clearly" BPH related ("precipitated") since there was likely to be more than one factor (including BPH) involved that precipitated the event.
Acute urinary retention was analyzed using the log-rank test for time-to-first-event and corroborated with Fisher's exact test on the cumulative incidence.

[2] = test system: human type 2 enzyme (5α-reductase); conditions: cited from earlier work
[3] = test system: BPH / spontaneous acute urinary retention; conditions: patients with BPH; cited from earlier work

With `CC(C)(C)NC(=O)[C@H]1CC[C@H]2[C@@H]3CC[C@H]4NC(=O)C=C[C@]4(C)[C@H]3CC[C@]12C` [finasteride, 17β-(N-tert-butylcarbamoyl)-3-oxo-4-aza-5α-androst-1-en-3-one] the “patients with an episode of precipitated acute urinary retention (percent)” value ([1]; 5 mg daily, 4-year study period, n=1513 finasteride, placebo 3.3%) was 1.5%, the “patients with an episode of precipitated acute urinary retention (number)” value ([1]; 5 mg daily, 4-year study period, n=1513 finasteride, placebo 49 of 1503) was 23 patients and the “reduction of the risk of having an episode of precipitated acute urinary retention” value ([1]; 5 mg daily, compared with placebo, over the 4-year study period) was 52%. For the same compound, the “relative risk (hazard ratio) versus placebo, precipitated acute urinary retention” value ([1]; finasteride 5 mg daily versus placebo, 4-year study period) was 0.48, the “inhibition of the human type 2 enzyme (in words)” value [2] was “potent inhibitor of the human type 2 enzyme” and the “reducing spontaneous acute urinary retention (in words)” value [3] was “significantly reducing spontaneous acute urinary retention”. For the same compound, the “treating BPH (in words)” value [3] was “effective in treating BPH”.
